Laboratory results published in patent publication US7138361B2, “Herbicidal heterocycles” (E. I. du Pont de Nemours and Company, priority 2000, dated 2006).

Key:
Format in all cases: in vivo
rice (Oryza saliva) = test: Test B flooded paddy test; conditions: Rate 1000 g/ha, scale of 0 to 100 where 0 is no effect and 100 is complete control, visually evaluated after 13 to 15 days
Method in brief: (§1)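 Plants were grown to the 2-leaf stage in flooded paddy conditions before treatment with the formulated test chemicals. After 13 to 15 days in a greenhouse, each species was visually compared with untreated controls and rated from 0 (no effect) to 100 (complete control).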

[1] = tested on: duck salad (Heteranthera limosa); test: Test B flooded paddy test; conditions: Rate 1000 g/ha, scale of 0 to 100 where 0 is no effect and 100 is complete control, visually evaluated after 13 to 15 days
Method in brief: as §1

[2] = tested on: barnyardgrass (Echinochloa crus-galli); test: Test B flooded paddy test; conditions: Rate 1000 g/ha, scale of 0 to 100 where 0 is no effect and 100 is complete control, visually evaluated after 13 to 15 days
Method in brief: as §1

[3] = tested on: smallflower flatsedge (Cyperus difformis); test: Test B flooded paddy test; conditions: Rate 1000 g/ha, scale of 0 to 100 where 0 is no effect and 100 is complete control, visually evaluated after 13 to 15 days
Method in brief: as §1

[4] = tested on: common ragweed (Ambrosia elatior); test: Test C preemergence; conditions: for Plant response rating (0 to 100), Ragweed, Common: Rate 250 g/ha, visual evaluation after 12 to 14 days
Method in brief: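 Plants held in greenhouse for 12–14 days post-application are scored by eye against controls on a 0–100 control scale. Application timing: preemergence on sown seed, or postemergence on 2–18 cm plants.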

[5] = Preemergence, Rate 500 g/ha, scale 0 to 100
[6] = Rate 62 g/ha, scale 0 to 100, 0 no effect, 100 complete control
[7] = preemergence, Rate 125 g/ha, scale 0 to 100, 0 no effect, 100 complete control

Row | Compound | Plant response rating, Rice (rice (Oryza saliva)) | Plant response rating, Ducksalad [1] | Plant response rating, Barnyardgrass [2] | Plant response rating, Flatsedge [3] | Plant response rating, Ragweed, Common [4, 5] | Plant response rating, Ragweed, Common [4, 6] | Plant response rating (0 to 100), Ragweed, Common ([4]; preemergence) | Plant response rating, Ragweed, Common [4, 7]
1 | O=C1C(n2ccc(C3CC3)n2)SCN1c1cccc(C(F)(F)F)c1 (centres unmarked) [Compound 26] | 0 | 0 | 0 | 0 | – | – | – | –
2 | CC(C)(C)c1ccn(C2CCN(c3cccc(Br)c3)C2=O)n1 (centres unmarked) [Compound 33] | 0 | 0 | 0 | 0 | 30 | 0 | 0 | 0
3 | O=C1C(n2ccc(C3CC3)n2)CCN1c1cccc(C(F)(F)F)c1 (centres unmarked) [Compound 8] | 90 | 80 | 100 | 100 | 80 | 0 | – | 0
4 | CC(C)(C)c1ccn(C2CCN(c3ccc(Cl)c(Br)c3)C2=O)n1 (centres unmarked) [Compound 56] | 0 | 20 | 80 | 90 | 20 | – | 0 | 0
5 | CC1CCc2cn(C3CCN(c4cccc(C(F)(F)F)c4)C3=O)nc21 (centres unmarked) [Compound 11] | 40 | 90 | 60 | 100 | – | – | – | –
6 | CC(C)(C)c1ccn(C2OCN(c3cccc(C(F)(F)F)c3)C2=O)n1 (centres unmarked) [compound 9] | 100 | 100 | 100 | 100 | – | – | – | –
7 | O=C1C(n2cc(Cl)c(C3CC3)n2)CCN1c1cccc(C(F)(F)F)c1 (centres unmarked) [Compound 12] | 0 | 0 | 0 | 30 | – | – | – | –
8 | CCC(C)c1ccn(C2OCN(c3cccc(C(F)(F)F)c3)C2=O)n1 (centres unmarked) [Compound 24] | 90 | 100 | 100 | 100 | – | – | – | –
9 | O=C1C(n2ccc(C3CCCCC3)n2)OCN1c1cccc(C(F)(F)F)c1 (centres unmarked) [Compound 51] | 30 | 100 | 100 | 100 | 0 | – | 0 | 0
10 | O=C1C(n2cccn2)CCN1c1cccc(C(F)(F)F)c1 (centres unmarked) [Compound 15] | 0 | 0 | 0 | 0 | – | – | – | –
